SMILES strings stand for the structures.

Chain of human PAD4 (hPAD4) (Q9UM07 whole entry): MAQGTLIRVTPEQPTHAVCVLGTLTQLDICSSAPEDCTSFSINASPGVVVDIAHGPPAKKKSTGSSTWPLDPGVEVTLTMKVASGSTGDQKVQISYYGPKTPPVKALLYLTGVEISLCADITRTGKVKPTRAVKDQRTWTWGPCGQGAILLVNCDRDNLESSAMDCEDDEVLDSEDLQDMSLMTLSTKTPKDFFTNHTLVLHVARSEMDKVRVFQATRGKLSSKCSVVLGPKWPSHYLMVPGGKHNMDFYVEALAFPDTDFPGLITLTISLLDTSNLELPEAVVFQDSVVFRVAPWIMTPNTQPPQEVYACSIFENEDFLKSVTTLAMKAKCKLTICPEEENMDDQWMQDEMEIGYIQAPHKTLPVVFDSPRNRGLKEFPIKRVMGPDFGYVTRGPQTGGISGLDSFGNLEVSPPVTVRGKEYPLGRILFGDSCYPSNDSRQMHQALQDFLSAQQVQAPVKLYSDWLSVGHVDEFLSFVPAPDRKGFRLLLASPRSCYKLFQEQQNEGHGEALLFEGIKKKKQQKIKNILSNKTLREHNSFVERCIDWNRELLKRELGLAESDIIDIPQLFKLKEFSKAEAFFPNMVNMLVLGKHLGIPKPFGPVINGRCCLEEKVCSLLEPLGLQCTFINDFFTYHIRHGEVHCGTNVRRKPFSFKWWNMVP

This experiment concerns the target human PAD4 (hPAD4) (Homo sapiens (Human), UniProt Q9UM07). Description: RFMS Human PAD4 Functional Assay 1. The following applies: RFMS assay 1; 5 nM hPAD4, 250 μM BAEE substrate, 50 μM calcium, 37° C. Type of experiment: biochemical. The method, boiled down: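 Citrullination product read by RapidFire triple-quad MRM against a modified-citrulline internal standard, after TCA stop and 30 min phenyl glyoxal step at 37 °C. Reaction: 250 μM BAEE, 5 nM human PAD4, 90 min at 37 °C, pH 7.5 HEPES buffer with 50 μM calcium and 5 μM TPEN, following 30 min compound–enzyme preincubation (max 50 μM).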
For the compound `COc1cc(C(=O)N2CCC[C@@H](N)C2)cn2nc(-c3cc4cccc(C5CCN(C(C)=O)CC5)c4n3CC3CC3)c(C)c12` [Example 410, (R)-1-(4-(2-(6-(3-Aminopiperidine-1-carbonyl)-4-methoxy-3-methylpyrazolo[1,5-a]pyridin-2-yl)-1-(cyclopropylmethyl)-1H-indol-7-yl)piperidin-1-yl)ethan-1-one], the half-maximal inhibitory concentration (IC50) worked out at 90 nM.

For `COc1cc(C(=O)N2C[C@H](N)C[C@@H](F)C2)cn2nc(-c3cc4cccc(C5CCN(C(C)=O)CC5)c4n3CC3CC3)c(C)c12` [Example 411, 1-(4-(2-(6-((3R,5R)-3-Amino-5-fluoropiperidine-1-carbonyl)-4-methoxy-3-methylpyrazolo[1,5-a]pyridin-2-yl)-1-(cyclopropylmethyl)-1H-indol-7-yl)piperidin-1-yl)ethan-1-one], the IC50 worked out at 110 nM.

`COc1cc(C(=O)N2CC3CCC2[C@@H]3N)cn2nc(-c3cc4cccc(C5CCN(C(C)=O)CC5)c4n3CC3CC3)c(C)c12` (stereo partly drawn) [Example 412, 1-(4-(2-(6-((7R)-7-Amino-2-azabicyclo[2.2.1]heptane-2-carbonyl)-4-methoxy-3-methylpyrazolo[1,5-a]pyridin-2-yl)-1-(cyclopropylmethyl)-1H-indol-7-yl)piperidin-1-yl)ethan-1-one]: the IC50 is 10 nM.

For `CC(=O)N1CCC(c2cccc3cc(-c4nn5cc(C(=O)N6CCC[C@@H](N)C6)cc(F)c5c4C)n(CC4CC4)c23)CC1` [Example 413, (R)-1-(4-(2-(6-(3-Aminopiperidine-1-carbonyl)-4-fluoro-3-methylpyrazolo[1,5-a]pyridin-2-yl)-1-(cyclopropylmethyl)-1H-indol-7-yl)piperidin-1-yl)ethan-1-one], the IC50 was determined as 30 nM.

For `Cc1c(-c2cc3cccc(C4CCN(C(=O)[C@H]5CC[C@H](O)CC5)CC4)c3n2CC2CC2)nn2cc(C(=O)N3C[C@H](N)C[C@@H](F)C3)cc(F)c12` [Example 414, ((3R,5R)-3-Amino-5-fluoropiperidin-1-yl)(2-(1-(cyclopropylmethyl)-7-(1-((1r,4r)-4-hydroxycyclohexane-1-carbonyl)piperidin-4-yl)-1H-indol-2-yl)-4-fluoro-3-methylpyrazolo[1,5-a]pyridin-6-yl)methanone], the IC50 was determined as 260 nM.

Regarding `Cc1c(-c2cc3cccc(C4CCN(C(=O)[C@H]5CC[C@H](O)CC5)CC4)c3n2CC2CC2)nn2cc(C(=O)N3CCC[C@@H](N)C3)cc(F)c12` [Example 415, ((R)-3-Aminopiperidin-1-yl)(2-(1-(cyclopropylmethyl)-7-(1-((1r,4r)-4-hydroxycyclohexane-1-carbonyl)piperidin-4-yl)-1H-indol-2-yl)-4-fluoro-3-methylpyrazolo[1,5-a]pyridin-6-yl)methanone], the IC50 was determined as 460 nM.

For `Cc1c(-c2cc3cccc(C4CCN(C(=O)[C@H]5CC[C@@H](O)CC5)CC4)c3n2CC2CC2)nn2cc(C(=O)N3C[C@H](N)C[C@@H](F)C3)cc(F)c12` [Example 416, ((3R,5R)-3-Amino-5-fluoropiperidin-1-yl)(2-(1-(cyclopropylmethyl)-7-(1-((1s,4s)-4-hydroxycyclohexane-1-carbonyl)piperidin-4-yl)-1H-indol-2-yl)-4-fluoro-3-methylpyrazolo[1,5-a]pyridin-6-yl)methanone], the 50% inhibitory concentration (IC50) came to 560 nM.

Consider `COC(C)(C)C(=O)N1CCC(c2cccc3cc(-c4nn5cc(C(=O)N6C[C@H](N)C[C@@H](F)C6)cc(F)c5c4C)n(CC4CC4)c23)CC1` [Example 417, 1-(4-(2-(6-((3R,5R)-3-Amino-5-fluoropiperidin-1-carbonyl)-4-fluoro-3-methylpyrazolo[1,5-a]pyridin-2-yl)-1-(cyclopropylmethyl)-1H-indol-7-yl)piperidin-1-yl)-2-methoxy-2-methylpropan-1-one], for which the IC50 came to 5060 nM.

For `COC(C)(C)C(=O)N1CCC(c2cccc3cc(-c4nn5cc(C(=O)N6CCC[C@@H](N)C6)cc(F)c5c4C)n(CC4CC4)c23)CC1` [Example 418, (R)-1-(4-(2-(6-(3-Aminopiperidin-1-carbonyl)-4-fluoro-3-methylpyrazolo[1,5-a]pyridin-2-yl)-1-(cyclopropylmethyl)-1H-indol-7-yl)piperidin-1-yl)-2-methoxy-2-methylpropan-1-one], the IC50 turned out to be 1710 nM.

For the compound `CO[C@@H](C)C(=O)N1CCC(c2cccc3cc(-c4nn5cc(C(=O)N6C[C@H](N)C[C@@H](F)C6)cc(F)c5c4C)n(CC4CC4)c23)CC1` [Example 423, (S)-1-(4-(2-(6-((3R,5R)-3-Amino-5-fluoropiperidine-1-carbonyl)-4-fluoro-3-methylpyrazolo[1,5-a]pyridin-2-yl)-1-(cyclopropylmethyl)-1H-indol-7-yl)piperidin-1-yl)-2-methoxypropan-1-one], the IC50 turned out to be 150 nM.

For `CO[C@@H](C)C(=O)N1CCC(c2cccc3cc(-c4nn5cc(C(=O)N6CCC[C@@H](N)C6)cc(F)c5c4C)n(CC4CC4)c23)CC1` [Example 424, (S)-1-(4-(2-(6-((R)-3-Aminopiperidine-1-carbonyl)-4-fluoro-3-methylpyrazolo[1,5-a]pyridin-2-yl)-1-(cyclopropylmethyl)-1H-indol-7-yl)piperidin-1-yl)-2-methoxypropan-1-one], the IC50 stood at 80 nM.

On to `CO[C@H](C)C(=O)N1CCC(c2cccc3cc(-c4nn5cc(C(=O)N6C[C@H](N)C[C@@H](F)C6)cc(F)c5c4C)n(CC4CC4)c23)CC1` [Example 425, (R)-1-(4-(2-(6-((3R,5R)-3-Amino-5-fluoropiperidine-1-carbonyl)-4-fluoro-3-methylpyrazolo[1,5-a]pyridin-2-yl)-1-(cyclopropylmethyl)-1H-indol-7-yl)piperidin-1-yl)-2-methoxypropan-1-one], for which the IC50 was determined as 50 nM.

Consider `CO[C@H](C)C(=O)N1CCC(c2cccc3cc(-c4nn5cc(C(=O)N6CCC[C@@H](N)C6)cc(F)c5c4C)n(CC4CC4)c23)CC1` [Example 426, (R)-1-(4-(2-(6-((R)-3-Aminopiperidine-1-carbonyl)-4-fluoro-3-methylpyrazolo[1,5-a]pyridin-2-yl)-1-(cyclopropylmethyl)-1H-indol-7-yl)piperidin-1-yl)-2-methoxypropan-1-one], for which the IC50 was determined as 50 nM.

Consider `CC(=O)N1CCC(c2cccc3cc(-c4nn5cc(C(=O)N6C[C@H](N)C[C@@H](F)C6)cc(F)c5c4C)n(CC4CC4)c23)CC1` [Example 427, 1-(4-(2-(6-((3R,5R)-3-Amino-5-fluoropiperidine-1-carbonyl)-4-fluoro-3-methylpyrazolo[1,5-a]pyridin-2-yl)-1-(cyclopropylmethyl)-1H-indol-7-yl)piperidin-1-yl)ethan-1-one], for which the IC50 was 20 nM.

Consider `COCC(=O)N1CCC(c2cccc3cc(-c4nn5cc(C(=O)N6C[C@H](N)C[C@@H](F)C6)cc(F)c5c4C)n(CC4CC4)c23)CC1` [Example 428, 1-(4-(2-(6-((3R,5R)-3-Amino-5-fluoropiperidine-1-carbonyl)-4-fluoro-3-methylpyrazolo[1,5-a]pyridin-2-yl)-1-(cyclopropylmethyl)-1H-indol-7-yl)piperidin-1-yl)-2-methoxyethan-1-one], for which the IC50 was 30 nM.

`COCC(=O)N1CCC(c2cccc3cc(-c4nn5cc(C(=O)N6CCC[C@@H](N)C6)cc(F)c5c4C)n(CC4CC4)c23)CC1` [Example 429, (R)-1-(4-(2-(6-(3-Aminopiperidine-1-carbonyl)-4-fluoro-3-methylpyrazolo[1,5-a]pyridin-2-yl)-1-(cyclopropylmethyl)-1H-indol-7-yl)piperidin-1-yl)-2-methoxyethan-1-one]: the half-maximal inhibitory concentration (IC50) came out at 40 nM.

`Cc1c(-c2cc3cccc(C4CCN(C(=O)CCO)CC4)c3n2CC2CC2)nn2cc(C(=O)N3C[C@H](N)C[C@@H](F)C3)ccc12` [Example 430, 1-(4-(2-(6-((3R,5R)-3-amino-5-fluoropiperidine-1-carbonyl)-3-methylpyrazolo[1,5-a]pyridin-2-yl)-1-(cyclopropylmethyl)-1H-indol-7-yl)piperidin-1-yl)-3-hydroxypropan-1-one]: the IC50 is 80 nM.

On to `Cc1c(-c2cc3cccc(C4CCN(C(=O)COC(C)C)CC4)c3n2CC2CC2)nn2cc(C(=O)N3C[C@H](N)C[C@@H](F)C3)ccc12` [Example 431, 1-(4-(2-(6-((3R,5R)-3-amino-5-fluoropiperidine-1-carbonyl)-3-methylpyrazolo[1,5-a]pyridin-2-yl)-1-(cyclopropylmethyl)-1H-indol-7-yl)piperidin-1-yl)-2-isopropoxyethan-1-one], for which the half-maximal inhibitory concentration (IC50) stood at 130 nM.

For the compound `Cc1c(-c2cc3cccc(C4CCN(C(=O)COC(C)C)CC4)c3n2CC2CC2)nn2cc(C(=O)N3CCC[C@@H](N)C3)ccc12` [Example 432, (R)-1-(4-(2-(6-(3-aminopiperidine-1-carbonyl)-3-methylpyrazolo[1,5-a]pyridin-2-yl)-1-(cyclopropylmethyl)-1H-indol-7-yl)piperidin-1-yl)-2-isopropoxyethan-1-one], the half-maximal inhibitory concentration (IC50) stood at 200 nM.

Take `Cc1c(-c2cc3cccc(C4CCN(C(=O)C(C)(C)CO)CC4)c3n2CC2CC2)nn2cc(C(=O)N3C[C@H](N)C[C@@H](F)C3)ccc12` [Example 433, 1-(4-(2-(6-((3R,5R)-3-amino-5-fluoropiperidine-1-carbonyl)-3-methylpyrazolo[1,5-a]pyridin-2-yl)-1-(cyclopropylmethyl)-1H-indol-7-yl)piperidin-1-yl)-3-hydroxy-2,2-dimethylpropan-1-one]: the IC50 is 140 nM.

For the compound `Cc1c(-c2cc3cccc(C4CCN(C(=O)C(C)(C)CO)CC4)c3n2CC2CC2)nn2cc(C(=O)N3CCC[C@@H](N)C3)ccc12` [Example 434, (R)-1-(4-(2-(6-(3-aminopiperidine-1-carbonyl)-3-methylpyrazolo[1,5-a]pyridin-2-yl)-1-(cyclopropylmethyl)-1H-indol-7-yl)piperidin-1-yl)-3-hydroxy-2,2-dimethylpropan-1-one], the concentration for half-maximal inhibition (IC50) stood at 250 nM.

By IC50 is commonly meant the concentration that inhibits the measured activity by half.

The values are drawn from patent US12473304B2, “Heterocyclic PAD4 inhibitors” (BRISTOL-MYERS SQUIBB COMPANY, priority 2020, dated 2025).
